The text below walks through data of patent publication US9827315B2, “Compositions of pharmaceutical actives containing diethylene glycol monoethyl ether or other alkyl derivatives” (THEMIS MEDICARE LIMITED, priority 2013, dated 2017).

For orientation: bioavailability means dose-corrected exposure relative to a reference, in per cent. The term solubility denotes how much of the substance goes into solution per volume. The term half-life denotes how long it takes for the measured level to halve.

Converted amounts (≈) assume the structure as drawn. Read-outs that look alike come from different tables or passages of the source. Bounds are passed on as bounds.

The conditions of data set [1]: cited from earlier work.
The conditions of data set [2]: cited from earlier work; for half-life: in vivo.
Data set [3] is described as follows: Viscosity of formulations prepared in Diethylene glycol monoethyl ether and of comparators. It is filed as physicochemical. The conditions noted are these: final solution/formulation; marketed comparators.
A short description of data set [4]: physchem. Particulars: organic solvent or mixture, Solubility in Diethylene Glycol Monoethyl Ether.
Data set [5] can be described thus: physchem. The conditions noted are these: organic solvent or mixture.
Protocol: Progesterone is dissolved in solution of 20% Benzyl alcohol giving a clear solution and add Diethylene glycol monoethyl ether with constant stirring and make the volume up to 100 ml with Diethylene glycol monoethyl ether. […] This solution is filled in 3 ml clear glass vial.
Data set [6] is described as follows: Solubility of pharmaceutical actives in Diethylene glycol monoethyl ether. Particulars: Diethylene glycol monoethyl ether, organic solvent or mixture, Solubility in Diethylene Glycol Monoethyl Ether.
Data set [7] is described as follows: Intramuscular, Intravenous and Intraocular safety studies. Particulars: in vivo.
Data set [8] relates to Rabbits (New Zealand White). Nature of the data set: Acute Eye Irritation/Corrosion Test in Rabbits. The class given is in vivo. Here is the method: Acute Eye Irritation/Corrosion Test for Diethylene Glycol Monoethyl Ether (Transcutol HP) in Rabbits • Test Item Transcutol HP • Diluted with: Water for injection • Test System Rabbits (New Zealand White) • Total No. of Animals: 6 animals for initial test • 12 animals for confirmatory test • No. of groups: 6 Study Design:
Initial test is carried out by using one animal per group.
Irrigation was carried out after 24 hrs from the treatment and the animals are again observed for symptoms of toxicity.
Confirmatory test is carried out by using two animals per group.
The dosing methodology and irrigation procedure was same as mentioned in the initial test and the observations were found as follows: […]

As to `COCCCOc1ccnc(C[S+]([O-])c2nc3ccccc3[nH]2)c1C` (racemic) [Rabeprazole, (RS)-2-([4-(3-methoxypropoxy)-3-methylpyridin-2-yl]methylsulfinyl)-1H-benzo[d]imidazole], the “Solubility in water (descriptive)” value in data set [1] is “insoluble”. Moreover, in data set [2] (enteric coated tablet), the bioavailability is 51%.
Take `CN1C(C(=O)Nc2ccccn2)=C(O)c2ccccc2S1(=O)=O` [Piroxicam, (8E)-8-[hydroxy-(pyridin-2-ylamino)methylidene]-9-methyl-10,10-dioxo-10λ6-thia-9-azabicyclo[4.4.0]deca-1,3,5-trien-7-one]: the Viscosity in data set [3] stood at 3.365 cps.
`O=C(CCCN1CCC(O)(c2ccc(Cl)cc2)CC1)c1ccc(F)cc1` [Haloperidol, 4-[4-(p-chlorophenyl)-4-hydroxypiperidino]-4′-fluorobutyrophenone]: the solubility in water in data set [1] is 1.4 mg/100 ml. In addition, the “solubility in 0.1 N hydrochloric acid” value in data set [1] (with heating) is 3 mg/mL (≈ 7.98 mM). The solubility in data set [4] came to 8.3 mg/mL (≈ 22.1 mM).
In the case of `CC(=O)[C@H]1CC[C@H]2[C@@H]3CCC4=CC(=O)CC[C@]4(C)[C@H]3CC[C@]12C` [Progesterone, pregn-4-ene-3,20-dione], in data set [1] (at 19° C.), the solubility in water was less than 0.1 g/100 ml. The “Solubility in water (descriptive)” value in data set [1] is given as “insoluble”. Besides, in data set [5], the solubility was no more than 100 mg/mL.
In the case of `CCOC(=O)O[C@]1(C(=O)OCCl)CC[C@H]2[C@@H]3CCC4=CC(=O)C=C[C@]4(C)[C@H]3[C@@H](O)C[C@@]21C` [Loteprednol], in data set [1], the solubility in water is recorded as 8 μg per 1t. The solubility in data set [4] was determined as 25 mg/mL (≈ 53.5 mM).
`C[C@H]1O[C@@H](O[C@H]2[C@@H](O)C[C@H](OC3CC[C@@]4(C)[C@H](CC[C@@H]5[C@@H]4C[C@@H](O)[C@]4(C)[C@@H](C6=CC(=O)OC6)CC[C@]54O)C3)O[C@@H]2C)C[C@H](O)C1OC1C[C@H](O)[C@H](O)[C@@H](C)O1` (stereo partly drawn) [Digoxin, (3β, 5β,12β)-3-[(O-2,6-dideoxy-β-D-ribo-hexopyranosyl-(1→4)-O-2,6-dideoxy-β-D-ribo-hexopyranosyl-(1→4)-2,6-dideoxy-β-D-ribo-hexopyranosyl)oxy]-12,14-dihydroxy-card-20(22)-enolide]: the half-life result in data set [2] is listed as “about 36 hours”.
`C[C@@H](c1ncncc1F)[C@](O)(Cn1cncn1)c1ccc(F)cc1F` [Voricanozole, (2R,3S)-2-(2,4-difluorophenyl)-3-(5-fluoropyrimidin-4-yl)-1-(1H-1,2,4-triazol-1-yl)butan-2-ol]: the Viscosity in data set [3] is on record as 2.977 cps.
Regarding `C[C@]12CC[C@H]3[C@@H](CCC4=CC(=O)CC[C@@]43C)[C@@H]1CC[C@@H]2OC(=O)CCC1CCCC1` [Testosterone Cypionate, androst-4-en-3-one, 17-(3-cyclopentyl-1-oxopropoxy)-, (17β)-], the Viscosity result in data set [3] was “less than 7 cps”. Besides, the solubility in data set [4] came to 50 mg/mL (≈ 121 mM).
As to `CC(C)c1cccc(C(C)C)c1O` [Propofol, 2,6-diisopropylphenol], the Viscosity result in data set [3] is on record as “less than 5 cps”.
Consider `C[C@]12CC[C@@H]3c4ccc(O)cc4C[C@@H](CCCCCCCCC[S+]([O-])CCCC(F)(F)C(F)(F)F)[C@H]3[C@@H]1CC[C@@H]2O` (stereo partly drawn) [Fulvestrant, 7-alpha-[9-(4,4,5,5,5-pentafluoropentylsulphinyl)nonyl]estra-1,3,5-(10)-triene-3,17beta-diol], for which the “Solubility in water (descriptive)” value in data set [1] was “practically insoluble”. For the same compound, the solubility in data set [6] came out at 58.8 mg/mL (≈ 96.9 mM).
For the compound `CCCCCCC(=O)O[C@H]1CC[C@H]2C3CCC4=CC(=O)CCC4(C)[C@H]3CCC12C` (some centres unmarked) [Testosterone Enanthate, Testosterone enanthate], in data set [1], the “Solubility in water (descriptive)” value is “insoluble”. Further, the solubility in data set [4] was found to be 55.5 mg/mL (≈ 139 mM).
Consider `CO[C@H]1O[C@@H]2O[C@@]3(C)CC[C@H]4[C@H](C)CC[C@@H]([C@H]1C)[C@@]24OO3` [Artemether, (+)-(3-alpha,5a-beta,6-beta,8a-beta, 9-alpha,12-beta,12aR)-decahydro-10-methoxy-3,6,9-trimethyl-3,12-epoxy-12H-pyrano(4,3-j)-1,2-benzodioxepin], for which, in data set [1], the “Solubility in water (descriptive)” value is listed as “practically insoluble”. In addition, the solubility in data set [6] turned out to be 100 mg/mL (≈ 335 mM).
`C[C@]12CC[C@H]3[C@@H](CCC4=CC(=O)CC[C@@]43C)[C@@H]1CC[C@@H]2O` [Testosterone]: the “Solubility in water (descriptive)” value in data set [1] is “practically insoluble”. In data set [2], the half-life is 2 to 4 h.
In the case of `CCCCC[C@H](O)/C=C/[C@H]1[C@H](O)CC(=O)[C@@H]1CCCCCCC(=O)O` [Prostaglandin E1 (Alprostadil), (11α,13E,15S)-11,15-dihydroxy-9-oxoprost-13-en-1-oic acid], in data set [1] (at 35° C.), the “solubility in double distilled water” value is recorded as 8000 micrograms per 100 milliliter. Further, the solubility in data set [4] was found to be 50 mg/mL (≈ 141 mM).
On to `CCOCCOCCO` [Diethylene glycol monoethyl ether, 2-(2-Ethoxyethoxy)ethanol], for which the “Solubility in water (descriptive)” value in data set [1] was “soluble”. The “safety in Intramuscular, Intravenous and Intraocular studies” value in data set [7] is “safe and non toxic”. Further, the “eye irritation, confirmatory test” value in data set [8] (1 hr, first three groups) is “no test item related effects”; in data set [8] (1 hr, group 4 and group 5) it was “Mild irritation”; in data set [8] (1 hr, group 6), “severe irritation”; in data set [8] (24 hr, group 1 to group 3), “normal”; in data set [8] (24 hr, group 4 and group 5), “mild irritation including Chemosis, lacrimation and mild pupillary constriction”; in data set [8] (24 hr, group 6), “severe irritation”. Besides, the “eye irritation, initial test” value in data set [8] (24 hr, all animals except group 6) was “normal”; in data set [8] (24 hr, group 6) it was “mild irritation including Chemosis and Lacrimation”; in data set [8] (first hour, first three groups) it was “no test item related effects”; in data set [8] (first hour, group 4 and 5), “Mild irritation”; in data set [8] (first hour, group 6), “moderate irritation”. For the same compound, the “ocular toxicity, summary” value in data set [8] (concentration of 100%, intra occularly) is “irritant but not corrosive”; in data set [8] (up to 80% of concentration), “not showing any occular toxicity”. The “corrosion effect, initial test” value in data set [8] (rabbit, in vivo) is given as “no corrosion effect”.
As to `CC(=O)O[C@@]12CO[C@@H]1C[C@H](O)[C@@]1(C)C(=O)[C@H](O)C3=C(C)[C@@H](OC(=O)[C@H](O)[C@@H](NC(=O)OC(C)(C)C)c4ccccc4)C[C@@](O)([C@@H](OC(=O)c4ccccc4)[C@H]21)C3(C)C` [Docetaxel, 1,7β,10β-trihydroxy-9-oxo-5β,20-epoxytax-11-ene-2α,4,13α-triyl 4-acetate 2-benzoate 13-{(2R,3S)-3-[(tert-butoxycarbonyl)amino]-2-hydroxy-3-phenylpropanoate}], in data set [1], the “Solubility in water (descriptive)” value is given as “practically insoluble”. Moreover, in data set [6], the solubility is 55 mg/mL (≈ 68.1 mM).
`CCOC(=O)C1=C[C@]2(CC)CCCN3CCc4c(n1c1ccccc41)[C@@H]32` [Vinpocetine]: the “Solubility in water (descriptive)” value in data set [1] was “Soluble in DMSO, DMF, ethanol, acetic acid, acetone, and chloroform. Insoluble in water”. For the same compound, the solubility in data set [6] was 12 mg/mL (≈ 34.2 mM).
`NC[C@H]1O[C@H](O[C@H]2[C@H](O)[C@@H](O[C@H]3O[C@H](CO)[C@@H](O)[C@H](N)[C@H]3O)[C@H](N)C[C@@H]2N)[C@H](N)C[C@@H]1O` [Tobramycin]: the “Solubility in water (descriptive)” value in data set [1] is “Soluble”. Further, the solubility in data set [6] stood at 3 mg/mL (≈ 6.42 mM).
As for `CC(=O)O[C@H]1C(=O)[C@@]2(C)[C@H]([C@H](OC(=O)c3ccccc3)[C@]3(O)CC(OC(=O)[C@H](O)[C@@H](NC(=O)c4ccccc4)c4ccccc4)C(C)=C1C3(C)C)[C@]1(OC(C)=O)CO[C@@H]1C[C@@H]2O` (stereo partly drawn) [Paclitaxel, (2α,4α,5β,7β,10β,13α)-4,10-bis(acetyloxy)-13-{[(2R,3S)-3-(benzoylamino)-2-hydroxy-3-phenylpropanoyl]oxy}-1,7-dihydroxy-9-oxo-5,20-epoxytax-11-en-2-yl benzoate], the “Solubility in water (descriptive)” value in data set [1] is given as “insoluble”. Also, the solubility in data set [4] was determined as 23.8 mg/mL (≈ 27.9 mM).
`COc1cc([C@@H]2c3cc4c(cc3[C@@H](O[C@@H]3O[C@@H]5CO[C@@H](C)O[C@H]5[C@H](O)[C@H]3O)[C@H]3COC(=O)[C@H]23)OCO4)cc(OC)c1O` [Etoposide, 4′-demethylepipodophyllotoxin 9-[4,6-0-(R)-ethylidene-β-D-glucopyranoside]]: the “Solubility in water (descriptive)” value in data set [1] is reported as “sparingly soluble”. The solubility in data set [4] was found to be 30 mg/mL (≈ 51 mM).
Regarding `CCN[C@H]1CN(CCCOC)S(=O)(=O)c2sc(S(N)(=O)=O)cc21` [Brinzolamide], the solubility in data set [4] came out at 55.6 mg/mL (≈ 145 mM).
